Data as given in US20260209202A1, “N-METHYL-4-(QUINOLIN-2-YL)PYRIDIN-2-AMINE COMPOUNDS” (Abbvie Inc., priority 2023, published 2026).

What was measured:
[1] = target: tau aggregates in globus pallidus and putamen of PSP brains (Homo sapiens, UniProt P10636); experiment: Homologous (self-) displacement in vitro autoradiography on FF PSP brain sections; type: binding; conditions: 3 nM radioligand displaced by corresponding non-radiolabeled compound, mean of three PSP brains, read-out: sdKD (KD determined by means of self-displacement experiments)
Text: Brain Tissue. Flash-frozen (FF) tissue blocks, and, for some cases, the corresponding mirrored, formalin-fixed, paraffin-embedded (FFPE) tissue blocks from the globus pallidus and putamen of normal or Progressive Supranuclear Palsy (PSP) brains were purchased from Tissue Solutions Ltd (TS; Glasgow, UK). Both FF and FFPE tissue blocks were used to assess the distribution pattern of [3H] Compound (I) and [3H] Compound (II) binding to normal and PSP brain samples by means of in vitro autoradiography. Only FF tissue blocks were used to determine the affinity of [^3H] Compound (I) and [^3H] Compound (II) for PSP brain by means of in vitro autoradiography. […] The plates were read using a Phosphoimager Typhoon™ FLA-70001P (GE Healthcare, Chicago, IL USA). […] Quantitative analysis of the in vitro autoradiography results. Quantitative analysis was performed by computer assisted micro-densitometry (MCD; MCID basic, Interfocus, Devon, UK). […] Identification of the areas of interest was determined by reference to the Atlas of the Human Brain (Mai et al., 2015, Elsevier, ISBN:9780128028018). […]

[2] = test system: tau aggregates in globus pallidus and putamen of PSP brains; experiment: In vitro autoradiography of radioligand binding to sections of globus pallidus and putamen from PSP and normal brains; set-up: species or system human
Text: Brain Tissue. Flash-frozen (FF) tissue blocks, and, for some cases, the corresponding mirrored, formalin-fixed, paraffin-embedded (FFPE) tissue blocks from the globus pallidus and putamen of normal or Progressive Supranuclear Palsy (PSP) brains were purchased from Tissue Solutions Ltd (TS; Glasgow, UK). Both FF and FFPE tissue blocks were used to assess the distribution pattern of [3H] Compound (I) and [3H] Compound (II) binding to normal and PSP brain samples by means of in vitro autoradiography. Only FF tissue blocks were used to determine the affinity of [^3H] Compound (I) and [^3H] Compound (II) for PSP brain by means of in vitro autoradiography. […]
In vitro autoradiography. […] The plates were read using a Phosphoimager Typhoon™ FLA-70001P (GE Healthcare, Chicago, IL USA). […]
Quantitative analysis of the in vitro autoradiography results. Quantitative analysis was performed by computer assisted micro-densitometry (MCD; MCID basic, Interfocus, Devon, UK). […] Identification of the areas of interest was determined by reference to the Atlas of the Human Brain (Mai et al., 2015, Elsevier, ISBN:9780128028018). […]

[3] = PET imaging in cynomolgus macaques, baseline and homologous self-block; type: in vivo; conditions: for off-target binding in brain: healthy cynomolgus macaques; for blood brain barrier crossing / brain uptake and clearance: intravenous radiotracer
Description: PET imaging procedures in cynomolgus macaques were performed under the guidelines of the Institutional Animal Care and Use Committee. Anesthesia was maintained using isoflurane gas maintained at 1.25-3.0% for the duration of the imaging procedures. Prior to PET imaging, a head computed tomography (CT) was acquired using a Neurologica CereTom® CT system (Neurologica, Danvers, MA, USA) which was used for localization of the animal in the PET system, and later for attenuation correction of the PET data.
The radiotracer was administered as a bolus injection (3 mL over 2 minutes), and data collected in dynamic list mode emission acquisition was initiated using a Siemens Concorde microPET® Focus™ 220 (Siemens USA, Washington DC, USA) for 120 minutes. Arterial blood samples were acquired throughout the PET acquisition to measure radioactivity in whole blood and plasma and to assess the % parent and metabolite(s) for generation of an input function for kinetic modeling analysis. The whole blood arterial samples were acquired, initially rapidly (every 30 seconds) and decreased in frequency towards the end of the PET acquisition to every 30 minutes. Arterial whole blood samples were counted in a well counter (PerkinElmer Wizard® 1470; PerkinElmer, Waltham, MA, USA) for radioactivity concentration. Samples were then centrifuged (3000 RCF for 5 minutes) to allow extraction of plasma which was subsequently counted for radioactivity concentration. To determine the proportion of unchanged radiotracer, selected plasma samples (1, 2, 3, 4, 7, 9, 15, 20, 40, 60, 90, and 120 minutes) were extracted with equal volumes of acetonitrile, then injected onto a Dionex/Thermo Ultimate 3000 radio-HPLC system (ThermoFisher, Waltham, MA, USA) consisting of a Phenomenex® Onyx™ C18 10×100 mm column (Torrance, CA, USA), an Eckert and Ziegler coincidence BGO radiodetector (model B-FC-4100, Eckert and Ziegler, Atlanta, GA, USA) and a mobile phase of (A) 10 mM ammonium acetate and (B) acetonitrile. The conditions for [^18F] Compound (I) are: 0-2.5 min, 95% A at 4 mL/min; 2.5-2.6 min, 95% A to 50% A at 4 mL/min to 3 mL/min; 2.6-10 min, 50% A at 3 mL/min; 10-10.1 min, 50% A to 95% A at 3 mL/min to 4 mL/min; 10.1-13 min, 95% A at 4 mL/min. Retention time for [^18F] Compound (I) was 8.4 min. The conditions for [^18F] Compound (II) are: 0-2.5 min, 95% A at 4 mL/min; 2.5-2.6 min, 95% A to 65% A at 4 mL/min to 3 mL/min; 2.6-10 min, 65% A at 3 mL/min; 10-10.1 min, 65% A to 95% A at 3 mL/min to 4 mL/min; 10.1-13 min, 95% A at 4 mL/min. Retention time for [^18F] Compound (II) was 9.3 min. Arterial sampling data was used to generate the input function for kinetic modeling. Potential off-target specific binding in the brain was evaluated for each lead radiotracer using a pre-dosing paradigm in which PET was performed after administration of a 1 mg/kg homologous dose of the non-radioactive tracer over a 15-minute infusion 20 minutes prior to radiotracer injection.
Upon the completion of PET image acquisition, anesthesia was terminated, primates were monitored until fully alert, then transported to their cages. In addition to PET imaging, each primate underwent separate MRI imaging (GE Discovery™ 3T MR750 MRI scanner and GE Signa™ HDxt 1.5T MRI scanner, GE Healthcare, Chicago, IL, USA) for acquisition of a structural T1w image for purposes of co-registration and transformation to a standard atlas space. The PET data analysis was performed, and images were reconstructed using Siemens MicroPET® Manager and AsiPro (Siemens) software. PET list mode data was binned into sinograms with time frames of 6×30 seconds, 3×1 minutes, 2×2 minutes, 22×5 minutes. Images were reconstructed using filtered back projection using a Hanning filter with a 0.5 cycles/pixel cutoff. Corrections for attenuation (using the acquired CT), scatter, and deadtime correction were applied. Furthermore, the dynamic images were decay-corrected to start of PET acquisition, which coincided with the radiotracer injection. […]

Chain of tau aggregates in globus pallidus and putamen of PSP brains (Homo sapiens, UniProt P10636) (P10636 with tags, fused parts or gaps): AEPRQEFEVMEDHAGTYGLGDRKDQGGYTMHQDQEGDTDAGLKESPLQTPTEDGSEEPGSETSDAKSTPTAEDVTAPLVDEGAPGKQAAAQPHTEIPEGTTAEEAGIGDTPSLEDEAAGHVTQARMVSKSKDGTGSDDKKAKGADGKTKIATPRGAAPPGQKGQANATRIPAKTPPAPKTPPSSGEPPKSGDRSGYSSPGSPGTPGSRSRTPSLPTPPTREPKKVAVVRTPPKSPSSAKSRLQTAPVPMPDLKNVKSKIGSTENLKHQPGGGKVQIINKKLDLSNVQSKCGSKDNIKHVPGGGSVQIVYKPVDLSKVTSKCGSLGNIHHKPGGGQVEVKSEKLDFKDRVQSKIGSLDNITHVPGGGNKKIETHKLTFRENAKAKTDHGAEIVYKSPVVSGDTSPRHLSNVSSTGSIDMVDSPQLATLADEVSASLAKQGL

SMILES	Kd [1]	amount of radioligand bound to the tissue, PSP brains versus normal brains ([2]; 3 nM radioligand, grey matter of FF globus pallidus and putamen sections)	selectivity for tau aggregates in PSP affected brain tissue as compared to healthy brain tissue ([2]; globus pallidus and putamen)	off-target binding in brain [3]	relative brain uptake among the tracers ([3]; initial brain SUV after injection)	blood brain barrier crossing [3]	brain uptake and clearance [3]
CNc1cc(-c2ccc3cc(OCCOC)cc(F)c3n2)ccn1 [[^3H] Compound (I)] [4-[8-fluoro-6-(2-methoxyethoxy)quinolin-2-yl]-N—(^3H3)methylpyridin-2-amine]	12.4 nM	–	–	–	–	–	–
[3H]C([3H])([3H])Nc1cc(-c2ccc3cc(OCCOC)cc(F)c3n2)ccn1 [[^3H] Compound (I)] [4-[8-fluoro-6-(2-methoxyethoxy)quinolin-2-yl]-N—(^3H3)methylpyridin-2-amine]	–	2.1 times	high degree of selectivity	–	–	–	–
CNc1cc(-c2ccc3cc(OCCOC)cc([18F])c3n2)ccn1 [[^18F] Compound (I), 4-[8-(^18F)fluoro-6-(2-methoxyethoxy)quinolin-2-yl]-N-methylpyridin-2-amine]	–	–	–	did not show significant off-target binding	highest uptake	ability to cross the blood brain barrier	rapid uptake and rapid clearance
CNc1cc(-c2ccc3cc(N4CC(O)(C[18F])C4)ccc3n2)ccn1 [[^18F] Compound (II), 3-[(^18F)fluoromethyl]-1-{2-[2-(methylamino)pyridin-4-yl]quinolin-6-yl}azetidin-3-ol]	–	–	–	did not show significant off-target binding	–	ability to cross the blood brain barrier	rapid uptake and rapid clearance
